Converted amounts (≈) assume the structure as drawn. Square brackets hold non-standard residues; d marks the D form. Peptide text beside a SMILES is read from it. 2Nal = N[C@@H](Cc1ccc2ccccc2c1)C(=O)O; hIle = CC[C@H](C)C[C@H](N)C(=O)O; Cha = N[C@@H](CC1CCCCC1)C(=O)O
What was measured:
Pseudomonas aeruginosa [1] = test: Antibacterial activity against Pseudomonas aeruginosa ATCC 27853 assessed as reduction in microbial growth incubated for 16 to 20 hrs by CLSI protocol based Muller Hinton broth assay; type: functional; conditions: time 16-20 hrs
Staphylococcus aureus [2] = test: Antibacterial activity against methicillin-resistant Staphylococcus aureus ATCC 33591 assessed as reduction in bacterial growth incubated for 18 hrs by agar dilution method; type: functional
Enterococcus faecium = test: Antibacterial activity against vancomycin resistant Enterococcus faecium ATCC 700221 assessed as inhibition of bacterial growth incubated for 48 hrs by CLSI-based broth microdilution assay; type: functional
Escherichia coli [3] = test: Antibacterial activity against Escherichia coli ATCC 25922 assessed as reduction in microbial growth incubated for 16 to 20 hrs by CLSI protocol based Muller Hinton broth assay; type: functional; conditions: time 16-20 hrs
[4] = Hemolytic activity in human RBC assessed as hemolysis measured after 24 hrs; type: toxicity, cell-based, Erythrocyte; conditions: red blood cells
Staphylococcus aureus [5] = test: Antimicrobial activity against Staphylococcus aureus ATCC 25923 assessed as reduction in microbial growth incubated for 18 hrs by CLSI-based Mueller-Hinton broth dilution method; type: functional
Bacillus subtilis = test: Antibacterial activity against Bacillus subtilis ATCC 23857 assessed as reduction in bacterial growth incubated for 18 hrs by CLSI-based Mueller-Hinton broth dilution method; type: functional
[6] = test system: Staphylococcus epidermidis; test: Antibacterial activity against Staphylococcus epidermidis ATCC 12228 assessed as reduction in bacterial growth incubated for 18 hrs by CLSI-based Mueller-Hinton broth dilution method; type: functional
Escherichia coli [7] = test: Antibacterial activity against Escherichia coli ML-35 ATCC 43837 assessed as reduction in bacterial growth incubated for 18 hrs by CLSI-based Mueller-Hinton broth dilution method; type: functional
Pseudomonas aeruginosa [8] = test: Antibacterial activity against Pseudomonas aeruginosa ATCC 27853 assessed as reduction in bacterial growth incubated for 18 hrs by CLSI-based Mueller-Hinton broth dilution method; type: functional
Klebsiella pneumoniae = test: Antibacterial activity against Klebsiella pneumoniae ATCC 700603 assessed as reduction in bacterial growth incubated for 18 hrs by CLSI-based Mueller-Hinton broth dilution method; type: functional
Acinetobacter baumannii = test: Antibacterial activity against Acinetobacter baumannii ATCC 19606 assessed as reduction in bacterial growth incubated for 18 hrs by CLSI-based Mueller-Hinton broth dilution method; type: functional
Erythrocyte = test: Hemolytic activity in mouse erythrocyte assessed as hemolysis incubated for 1 hr by microplate reader analysis; type: toxicity, cell-based

MIC (Staphylococcus aureus [5]) | MIC (Bacillus subtilis) | MIC [6] | MIC (Escherichia coli [7]) | MIC (Pseudomonas aeruginosa [8]) | MIC (Klebsiella pneumoniae) | MIC (Acinetobacter baumannii) | SMILES | MIC (Pseudomonas aeruginosa [1]) | MIC (Staphylococcus aureus [2]) | MIC (Enterococcus faecium) | MIC (Escherichia coli [3]) | HC50 at 24 h [4] | HC10 (Erythrocyte)
– | – | – | – | – | – | – | CC[C@H](C)C[C@H](NC(=O)[C@H](CCCNC(=N)N)NC(=O)[C@H](CCCCN)NC(=O)[C@H](CC(C)C)NC(=O)[C@H](CC(C)C)NC(=O)CN)C(=O)N[C@@H](CCCCN)C(=O)N[C@H](C(=O)N[C@@H](CC1CCCCC1)C(=O)N[C@@H](CC(C)C)C(N)=O)[C@@H](C)O (H-GLLKR[hIle]KT[Cha]L-NH2) | 28.4 µM | 47.4 µM (≈ 57.2 µg/mL) | 28.4 µM (≈ 34.3 µg/mL) | 28.4 µM | 234 µM | –
– | – | – | – | – | – | – | CC[C@H](C)C[C@H](NC(=O)[C@H](CCCNC(=N)N)NC(=O)[C@H](CCCCN)NC(=O)[C@H](CC(C)C)NC(=O)[C@H](CC(C)C)NC(=O)CN)C(=O)N[C@@H](CCCCN)C(=O)N[C@H](C(=O)N[C@@H](CC(C)C)C(=O)N[C@@H](Cc1ccc2ccccc2c1)C(N)=O)[C@@H](C)O (H-GLLKR[hIle]KTL[2Nal]-NH2) | 9.5 µM | 28.4 µM (≈ 35.5 µg/mL) | 9.5 µM (≈ 11.9 µg/mL) | 22.1 µM | 18 µM | –
– | – | – | – | – | – | – | CC[C@H](C)C[C@H](NC(=O)[C@H](CCCNC(=N)N)NC(=O)[C@H](CCCCN)NC(=O)[C@H](CC(C)C)NC(=O)[C@H](CC(C)C)NC(=O)CN)C(=O)N[C@@H](CCCCN)C(=O)N[C@H](C(=O)N[C@@H](CC(C)C)C(=O)N[C@@H](CC1CCCCC1)C(N)=O)[C@@H](C)O (H-GLLKR[hIle]KTL[Cha]-NH2) | 28.4 µM | 28.4 µM (≈ 34.3 µg/mL) | 26.3 µM (≈ 31.8 µg/mL) | 12.5 µM | 317 µM | –
– | – | – | – | – | – | – | CC[C@H](C)[C@H](NC(=O)[C@H](Cc1c[nH]c2ccccc12)NC(=O)[C@H](CCCCN)NC(=O)[C@H](CC(C)C)NC(=O)[C@H](CC(C)C)NC(=O)CN)C(=O)N[C@@H](CCCCN)C(=O)N[C@@H](CCCCN)C(=O)N[C@@H](CC(C)C)C(=O)N[C@@H](CC(C)C)C(N)=O (H-GLLKWIKKLL-NH2) | 9.5 µM | 2.5 µM (≈ 3.03 µg/mL) | 3.2 µM (≈ 3.87 µg/mL) | 3.2 µM | 11.6 µM | –
– | – | – | – | – | – | – | CC(C)C[C@H](NC(=O)[C@H](CC(C)C)NC(=O)[C@@H](NC(=O)[C@H](CCCCN)NC(=O)[C@H](Cc1ccc2ccccc2c1)NC(=O)[C@H](CCCNC(=N)N)NC(=O)[C@H](CCCCN)NC(=O)[C@H](CC(C)C)NC(=O)[C@H](CC(C)C)NC(=O)CN)[C@@H](C)O)C(N)=O (H-GLLKR[2Nal]KTLL-NH2) | 28.4 µM | 85.3 µM (≈ 106 µg/mL) | 28.4 µM (≈ 35.1 µg/mL) | 28.4 µM | > 500 µM | –
4 µM | 2 µM (≈ 2.7 µg/mL) | 4 µM (≈ 5.4 µg/mL) | 16 µM (≈ 21.6 µg/mL) | 8 µM (≈ 10.8 µg/mL) | 16 µM (≈ 21.6 µg/mL) | 4 µM (≈ 5.4 µg/mL) | CCCCCCCCCCCCC(=O)NCCCC[C@@H](NC(=O)[C@@H](NC(=O)[C@H](CCCNC(=N)N)NC(=O)[C@@H](CCCCN)NC(=O)[C@H](CC(C)C)NC(=O)[C@H](CC(C)C)NC(=O)CN)[C@@H](C)CC)C(=O)N[C@H](C(=O)N[C@@H](CC(C)C)C(=O)N[C@@H](CC(C)C)C(N)=O)[C@@H](C)O | – | – | – | – | – | 32 µM
– | – | – | – | – | – | – | CC(C)C[C@H](NC(=O)[C@H](CC(C)C)NC(=O)[C@@H](NC(=O)[C@H](CCCCN)NC(=O)[C@H](CC1CCCCC1)NC(=O)[C@H](CCCNC(=N)N)NC(=O)[C@H](CCCCN)NC(=O)[C@H](CC(C)C)NC(=O)[C@H](CC(C)C)NC(=O)CN)[C@@H](C)O)C(N)=O (H-GLLKR[Cha]KTLL-NH2) | 15.8 µM | 28.4 µM (≈ 33.9 µg/mL) | 6 µM (≈ 7.16 µg/mL) | 28.4 µM | 304 µM | –
64 µM | 16 µM (≈ 22.5 µg/mL) | 32 µM (≈ 45 µg/mL) | 64 µM (≈ 90 µg/mL) | 64 µM (≈ 90 µg/mL) | 64 µM (≈ 90 µg/mL) | 16 µM (≈ 22.5 µg/mL) | CCCCCCCCCCCCCCCCC(=O)NCCCC[C@@H](NC(=O)[C@@H](NC(=O)[C@H](CCCNC(=N)N)NC(=O)[C@@H](CCCCN)NC(=O)[C@H](CC(C)C)NC(=O)[C@H](CC(C)C)NC(=O)CN)[C@@H](C)CC)C(=O)N[C@H](C(=O)N[C@@H](CC(C)C)C(=O)N[C@@H](CC(C)C)C(N)=O)[C@@H](C)O | – | – | – | – | – | 16 µM
128 µM | 8 µM (≈ 10.1 µg/mL) | 16 µM (≈ 20.3 µg/mL) | 32 µM (≈ 40.5 µg/mL) | 32 µM (≈ 40.5 µg/mL) | 128 µM (≈ 162 µg/mL) | 32 µM (≈ 40.5 µg/mL) | CCCCCCC(=O)NCCCC[C@@H](NC(=O)[C@@H](NC(=O)[C@H](CCCNC(=N)N)NC(=O)[C@@H](CCCCN)NC(=O)[C@H](CC(C)C)NC(=O)[C@H](CC(C)C)NC(=O)CN)[C@@H](C)CC)C(=O)N[C@H](C(=O)N[C@@H](CC(C)C)C(=O)N[C@@H](CC(C)C)C(N)=O)[C@@H](C)O | – | – | – | – | – | 256 µM

— ChEMBL document CHEMBL5608163, “Structure modification of anoplin for fighting resistant bacteria” (Eur J Med Chem, 2024)
